According to patent US20030215462A1, “Use of UGT inhibitors to increase bioavailability” (priority 2001, published 2003):

Experiments:
[1] = system: UGT enzymes of human liver microsomes; test: Inhibition of raloxifene glucuronidation (G1, G2) in human liver microsomes; format: biochemical; conditions: raloxifene 50 μM; for % of control metabolism (SD, n = 3), raloxifene glucuronide G1 / % of control metabolism (SD, n = 3), raloxifene glucuronide G2: human liver microsomes 250 μg/ml, 15 min
Text: Compounds were eluted using a binary solvent gradient system. […] Solvent B was methanol. […] Detection was at 280 nm.

UGT1A10 [2] = biological target: T1, UGT1A10 (Homo sapiens, UniProt Q9HAW8); test: Inhibition of raloxifene glucuronidation by recombinant UGT1A10 Bacculosomes
T1 sequence (Q9HAW8 26-530): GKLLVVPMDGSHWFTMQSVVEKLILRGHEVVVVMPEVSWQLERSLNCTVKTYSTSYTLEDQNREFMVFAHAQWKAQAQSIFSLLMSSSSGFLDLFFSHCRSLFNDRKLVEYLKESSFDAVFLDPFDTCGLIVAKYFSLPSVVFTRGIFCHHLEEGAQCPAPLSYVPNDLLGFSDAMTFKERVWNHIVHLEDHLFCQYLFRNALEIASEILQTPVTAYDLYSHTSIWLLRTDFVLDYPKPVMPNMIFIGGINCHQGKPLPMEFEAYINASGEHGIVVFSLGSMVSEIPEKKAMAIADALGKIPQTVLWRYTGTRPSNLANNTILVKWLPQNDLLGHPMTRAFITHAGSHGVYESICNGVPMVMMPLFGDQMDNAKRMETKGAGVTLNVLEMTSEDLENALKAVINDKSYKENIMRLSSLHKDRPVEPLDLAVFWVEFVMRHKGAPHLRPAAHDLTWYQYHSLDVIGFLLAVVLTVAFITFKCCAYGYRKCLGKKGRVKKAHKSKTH
Experimental: (§2) Compounds were eluted using a binary solvent gradient system. Solvent A was water brought to pH 8 with NH4OH. Solvent B was methanol. Solvent flow rate was 1 ml/min and the column temperature was maintained at 50° C. Detection was at 280 nm. […] The system was then returned to the initial conditions and equilibrated for 3 min.

[3] = system: UGT enzymes of pooled human jejunum microsomes; test: Inhibition of 2ME2 glucuronidation (MG1) in pooled human jejunum microsomes; format: biochemical; conditions: jejunum HJ61, 2ME2 50 μM
Text: (§1) Compounds were eluted using a binary solvent gradient system where solvent A was dilute phosphoric acid (pH 3) and solvent B was 80:20 acetonitrile-methanol. […] Detection was at 280 nm.

UGT1A10 [4] = biological target: T1, UGT1A10; test: in vitro; conditions: pH 7.5, % of control metabolism
Experimental: as §2

[5] = system: T2, UGT enzymes of human liver microsomes; test: Inhibition of 2ME2 glucuronidation (MG1, MG2) in human liver microsomes; format: biochemical; conditions: liver 062101, 2ME2 50 μM
T2 construct: other: liver 062101
Text: as §1

UGT1A1 [6] = biological target: T3, UGT1A1 (Homo sapiens, UniProt P22309); test: in vitro
T3 sequence (P22309 26-533): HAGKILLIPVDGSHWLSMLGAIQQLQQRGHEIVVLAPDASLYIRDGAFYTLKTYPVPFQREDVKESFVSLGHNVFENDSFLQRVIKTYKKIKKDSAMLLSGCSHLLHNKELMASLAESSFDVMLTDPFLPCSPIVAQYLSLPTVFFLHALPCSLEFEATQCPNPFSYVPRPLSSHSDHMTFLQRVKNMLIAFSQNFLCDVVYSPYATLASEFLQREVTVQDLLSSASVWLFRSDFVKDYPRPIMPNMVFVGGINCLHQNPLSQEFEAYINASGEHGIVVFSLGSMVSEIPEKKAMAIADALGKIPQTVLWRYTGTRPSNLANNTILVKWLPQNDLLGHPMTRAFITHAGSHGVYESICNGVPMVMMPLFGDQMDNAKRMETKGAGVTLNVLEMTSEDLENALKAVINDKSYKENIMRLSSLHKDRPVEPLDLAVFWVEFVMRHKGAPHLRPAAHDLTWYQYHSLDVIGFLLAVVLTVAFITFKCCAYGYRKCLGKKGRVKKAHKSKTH
Experimental: as §2

UGT1A1 [7] = biological target: T3, UGT1A1; test: Inhibition of raloxifene glucuronidation by recombinant UGT1A1 Supersomes; conditions: UGT1A1
Experimental: as §2

[8] = system: T4, UGT enzymes of human liver microsomes; test: Kinetic and Ki studies of inhibitors of 7-HFC glucuronidation in human liver microsomes; format: biochemical; conditions: 7-HFC 20-500 μM
T4 construct: percentage of control metabolism, 7-HFC glucuronidation; percentage of control metabolism, 7-HFC glucuronidation

UGT1A3 = biological target: T5, UGT1A3 (Homo sapiens, UniProt P35503); test: in vitro
T5 sequence (P35503 29-534): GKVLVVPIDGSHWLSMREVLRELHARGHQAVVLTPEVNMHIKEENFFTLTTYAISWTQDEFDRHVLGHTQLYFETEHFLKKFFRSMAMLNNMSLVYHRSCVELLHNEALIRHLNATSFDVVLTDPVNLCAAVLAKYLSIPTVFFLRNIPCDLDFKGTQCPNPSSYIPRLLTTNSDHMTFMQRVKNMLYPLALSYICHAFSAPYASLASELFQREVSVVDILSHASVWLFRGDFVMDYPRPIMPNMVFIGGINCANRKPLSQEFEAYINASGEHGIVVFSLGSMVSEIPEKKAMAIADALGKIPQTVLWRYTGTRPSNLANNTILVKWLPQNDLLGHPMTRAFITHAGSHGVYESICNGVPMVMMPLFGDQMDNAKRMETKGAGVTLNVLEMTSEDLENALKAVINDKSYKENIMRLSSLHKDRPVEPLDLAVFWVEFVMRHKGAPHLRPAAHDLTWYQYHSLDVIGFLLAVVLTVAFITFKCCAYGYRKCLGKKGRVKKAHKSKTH
Experimental: as §2

UGT1A9 = biological target: T6, UGT1A9 (Homo sapiens, UniProt O60656); test: in vitro; conditions: pH 7.5, % of control metabolism
T6 sequence (O60656 26-530): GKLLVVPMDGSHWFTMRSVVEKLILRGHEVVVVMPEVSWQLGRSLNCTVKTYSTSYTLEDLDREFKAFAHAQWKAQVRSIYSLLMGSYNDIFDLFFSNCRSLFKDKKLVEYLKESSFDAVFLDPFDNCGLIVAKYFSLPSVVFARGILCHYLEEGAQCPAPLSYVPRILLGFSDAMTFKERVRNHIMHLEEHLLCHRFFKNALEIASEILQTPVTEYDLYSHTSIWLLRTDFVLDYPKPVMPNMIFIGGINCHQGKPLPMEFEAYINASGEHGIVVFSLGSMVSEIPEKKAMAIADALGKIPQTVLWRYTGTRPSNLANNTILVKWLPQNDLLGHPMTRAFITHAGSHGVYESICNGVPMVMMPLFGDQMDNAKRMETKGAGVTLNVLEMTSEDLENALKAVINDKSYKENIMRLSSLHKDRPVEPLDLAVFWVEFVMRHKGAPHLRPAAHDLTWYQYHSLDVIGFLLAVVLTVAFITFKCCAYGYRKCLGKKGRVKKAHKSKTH
Experimental: as §2

[9] = system: UGT enzymes of pooled human jejunum microsomes; test: Inhibition of zidovudine glucuronidation in pooled human jejunum microsomes; format: biochemical; conditions: inhibitor 200 μM
Experimental: Increasing the microsomal protein concentration to 1 mg/ml and extending the incubation time to 60 min provided meaningful metabolite levels for inhibition studies.

[10] = cited from earlier work
[11] = system: T4, UGT enzymes of human liver microsomes; test: Inhibition of 7-HFC glucuronidation in human liver microsomes; format: biochemical; conditions: inhibitor 500 μM; 7-HFC 50 μM, human liver microsomes 100 μg/ml, 15 min
[12] = pH 7.5, % of control metabolism, raloxifene G1
[13] = pH 7.5, % of control metabolism, raloxifene G2

## O=C(O)Cc1ccccc1Nc1c(Cl)cccc1Cl [Diclofenac, reference compound]
[1]; inhibitor 50 μM
  % of control metabolism (SD, n = 3), raloxifene glucuronide G1: 65 (1) %
  % of control metabolism (SD, n = 3), raloxifene glucuronide G2: 67 (1) %
  % of control metabolism, raloxifene G1: 65 (1) %
  % of control metabolism, raloxifene G2: 67 (1) %
[1]; inhibitor 100 μM
  % of control metabolism (SD, n = 3), raloxifene glucuronide G1: 50 (3) %
  % of control metabolism (SD, n = 3), raloxifene glucuronide G2: 53 (3) %
  % of control metabolism, raloxifene G1: 50 (3) %
  % of control metabolism, raloxifene G2: 53 (3) %
[1]; inhibitor 500 μM
  % of control metabolism (SD, n = 3), raloxifene glucuronide G1: 6 (1) %
  % of control metabolism (SD, n = 3), raloxifene glucuronide G2: 6 (1) %
UGT1A10 [2]
  inhibition of raloxifene glucuronidation, in words: poor inhibitors
[3]; inhibitor 50 μM
  residual metabolism (% of control), 2ME2 MG1: 100 (3) %
[3]; inhibitor 100 μM
  residual metabolism (% of control), 2ME2 MG1: 97 (4) %
UGT1A10 [4]; raloxifene G1
  activity at 15 min, 50 µM: 97%
UGT1A10 [4]; raloxifene G2
  activity at 15 min, 50 µM: 93%
[5]; inhibitor 50 μM
  residual metabolism (% of control), 2ME2 MG1: 70 (1) %
  residual metabolism (% of control), 2ME2 MG2: 60 (1) %
[5]; inhibitor 100 μM
  residual metabolism (% of control), 2ME2 MG1: 54 (1) %
  residual metabolism (% of control), 2ME2 MG2: 44 (3) %
UGT1A1 [6]; [12]
  activity at 15 min, 50 µM: 66%
UGT1A1 [6]; [13]
  activity at 15 min, 50 µM: 73%
UGT1A1 [6]; pH 7.5, Inhibition of raloxifene glucuronidation, G1, UGT1A1
  activity at 15 min, 50 µM: 66%
UGT1A1 [6]; pH 7.5, Inhibition of raloxifene glucuronidation, G2, UGT1A1
  activity at 15 min, 50 µM: 73%
UGT1A1 [7]
  inhibition of raloxifene glucuronidation, in words: poor inhibitors
[8]
  Vmax of 7-HFC glucuronidation (fit of the experiment with this inhibitor): 64 ± 4 nmol/min/mg
[8]; read-out: Km of 7-HFC glucuronidation (fit of the experiment with this inhibitor)
  Km: 87 ± 7 µM
UGT1A3; [12]
  activity at 15 min, 50 µM: 74%
UGT1A3; [13]
  activity at 15 min, 50 µM: 75%
UGT1A3; pH 7.5, Inhibition of raloxifene glucuronidation, G1, UGT1A3
  activity at 15 min, 50 µM: 74%
UGT1A3; pH 7.5, Inhibition of raloxifene glucuronidation, G2, UGT1A3
  activity at 15 min, 50 µM: 75%
UGT1A9; raloxifene G1
  activity at 15 min, 50 µM: 74%
UGT1A9; raloxifene G2
  activity at 15 min, 50 µM: 77%
[9]
  residual metabolism (percentage of control), zidovudine: 18 (2) %

## CCCN(CCC)S(=O)(=O)c1ccc(C(=O)O)cc1 [Probenecid, reference compound]
[1]; inhibitor 500 μM
  % of control metabolism (SD, n = 3), raloxifene glucuronide G1: 70 (4) %
  % of control metabolism (SD, n = 3), raloxifene glucuronide G2: 70 (1) %
[10]; AIDS patients and healthy volunteers
  increase in zidovudine levels on co-administration: 2 fold
[10]; coadministration with diflunisal
  reduction in diflunisal metabolism to acyl- and phenol-glucuronides: 50%
[11]
  % of control metabolism (SD, n = 3), 7-HFC glucuronidation: 91 (1) %
